Converted amounts (≈) assume the structure as drawn.
Legend:
Giardia intestinalis = test: Antiprotozoal activity against clinical isolates of Giardia lamblia IMSS:8901:1; format: functional, organism-based; details: Giardia duodenalis
Entamoeba histolytica = test: Antiprotozoal activity against clinical isolates of Entamoeba histolytica HM-1:IMSS; format: functional, organism-based
SK-LU-1 = test: Cytotoxicity against human SKLU1 cells after 48 hrs by SRB method; format: functional, cell-based; details: SK-LU-1, 48 h
Mus musculus = test: Antiinflammatory activity against TPA-induced CD-1 mouse ear edema model assessed as swelling per ear after 4 hrs relative to control; format: functional, organism-based
PC-3 = test: Cytotoxicity against human PC3 cells after 48 hrs by SRB method; format: functional, cell-based; details: PC-3, 48 h
K562 = test: Cytotoxicity against human K562 cells after 48 hrs by SRB method; format: functional, cell-based; details: K562, 48 h
U-251 = test: Cytotoxicity against human U251 cells after 48 hrs by SRB method; format: functional, cell-based; details: U-251, 48 h
HCT-15 = test: Cytotoxicity against human HCT15 cells after 48 hrs by SRB method; format: functional, cell-based; details: HCT-15, 48 h
MCF7 = test: Cytotoxicity against human MCF7 cells after 48 hrs by SRB method; format: functional, cell-based; details: MCF7, 48 h

SMILES | IC50 (Giardia intestinalis) [mg/L] | IC50 (Entamoeba histolytica) [mg/L] | IC50 (Mus musculus) [µmol] | IC50 (SK-LU-1) [µM] | IC50 (PC-3) [µM] | IC50 (K562) [µM] | IC50 (U-251) [µM] | IC50 (HCT-15) [µM] | IC50 (MCF7) [µM]
C[C@]12C[C@H](c3ccoc3)OC(=O)[C@@]1(O)CC[C@@]13COC(=O)[C@@H]1C=CC[C@@H]32 | 42.4 (≈ 118 µM) | 56.5 (≈ 158 µM) | > 1 | > 50 | > 50 | > 50 | > 50 | > 50 | > 50
Oc1cc(O)c2c(c1)O[C@H](c1ccc(O)c(O)c1)[C@@H](O)C2 [CIANIDANOL] | 33.9 (≈ 117 µM) | 65.6 (≈ 226 µM) | – | – | – | – | – | – | –
C[C@]12C[C@H](c3ccoc3)OC(=O)[C@@]1(O)CC[C@@]13COC(=O)C1=CC[C@H]1O[C@]132 [TEHUANINE G] | 86.4 (≈ 232 µM) | 71.2 (≈ 191 µM) | – | – | – | – | – | – | –
C[C@]12C[C@H](c3ccoc3)OC(=O)[C@H]1CC[C@@]13COC(=O)[C@@H]1C=C[C@@H](O)[C@H]23 | 71.7 (≈ 200 µM) | 57.4 (≈ 160 µM) | – | – | – | – | – | – | –
NCCc1ccc(O)cc1 [TYRAMINE] | 68.9 (≈ 502 µM) | 54.2 (≈ 395 µM) | – | – | – | – | – | – | –

Second part, led by results:

IC50 (Giardia intestinalis) [mg/L] | IC50 (Entamoeba histolytica) [mg/L] | IC50 (Mus musculus) [µmol] | SMILES | IC50 (SK-LU-1) [µM] | IC50 (PC-3) [µM] | IC50 (K562) [µM] | IC50 (U-251) [µM] | IC50 (HCT-15) [µM] | IC50 (MCF7) [µM]
63.3 (≈ 169 µM) | 56.8 (≈ 152 µM) | > 1 | C[C@]12C[C@H](c3ccoc3)OC(=O)[C@H]1CC[C@@]13COC(=O)[C@H]1C[C@@H]1O[C@@H]1[C@]32O | > 50 | > 50 | > 50 | > 50 | > 50 | > 50
94.8 (≈ 265 µM) | 84.7 (≈ 236 µM) | > 1 | C[C@]12C[C@H](c3ccoc3)OC(=O)[C@H]1CC[C@@]13COC(=O)[C@H]1CC=C[C@]32O | > 50 | > 50 | > 50 | > 50 | > 50 | > 50
82.1 (≈ 210 µM) | 76.3 (≈ 195 µM) | > 1 | C[C@]12C[C@H](c3ccoc3)OC(=O)[C@@]1(O)CC[C@@]13COC(=O)[C@]1(O)CC=C[C@]23O | > 50 | > 50 | > 50 | > 50 | > 50 | > 50
85.8 (≈ 229 µM) | 79.7 (≈ 213 µM) | – | C[C@]12C[C@H](c3ccoc3)OC(=O)[C@@]1(O)CC[C@@]13COC(=O)[C@H]1CC=C[C@]32O | – | – | – | – | – | –
73.1 (≈ 204 µM) | 63.3 (≈ 177 µM) | > 1 | C[C@]12C[C@H](c3ccoc3)OC(=O)[C@@]1(O)CC[C@@]13COC(=O)[C@H]1CC=C[C@H]32 | > 50 | > 50 | > 50 | > 50 | > 50 | > 50

— ChEMBL document CHEMBL2429778, “Hydroxyclerodanes from Salvia shannoni” (J Nat Prod, 2013)
